# Measured values reported in the supplement of paper PMC8967900.
# What was measured:
# Test in all cases: selective drug sensitivity score (sDSS, relative to normal bone marrow) (sDSS (score)); higher = more potent and effective on the cell line relative to normal bone marrow cells
# Settings in all cases: 72 h
# NALM-16 = system: NALM-16
# COG-LL-394h = system: COG-LL-394h
# SUP-B15 = system: SUP-B15
# PEER = system: PEER
# MOLT-16 = system: MOLT-16
# COG-LL-355h = system: COG-LL-355h
# COG-LL-317 = system: COG-LL-317
# MOLT-4 = system: MOLT-4
# NALM-6 = system: NALM-6
# MN-60 = system: MN-60
# P30-OHKUBO = system: P30-OHKUBO
# CCRF-HSB2 = system: CCRF-HSB2
# HAL-01 = system: HAL-01
# KASUMI-9 = system: KASUMI-9
# COG-LL-402h = system: COG-LL-402h
# P12-ICHIKAWA = system: P12-ICHIKAWA
# COG-LL-319h = system: COG-LL-319h
# MOLT-14 = system: MOLT-14
# KOPN-8 = system: KOPN-8
# 697 = system: 697
# 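Also: ALL cell lines in 384-well plates, five doses spanning 10,000-fold, each plate scaled between vehicle and 100 µmol/L benzalkonium chloride controls, sDSS an adapted area-under-curve metric.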
Compound,selective drug sensitivity score (NALM-16),selective drug sensitivity score (COG-LL-394h),selective drug sensitivity score (SUP-B15),selective drug sensitivity score (PEER),selective drug sensitivity score (MOLT-16),selective drug sensitivity score (COG-LL-355h),selective drug sensitivity score (COG-LL-317),selective drug sensitivity score (MOLT-4),selective drug sensitivity score (NALM-6),selective drug sensitivity score (MN-60),selective drug sensitivity score (P30-OHKUBO),selective drug sensitivity score (CCRF-HSB2),selective drug sensitivity score (HAL-01),selective drug sensitivity score (KASUMI-9),selective drug sensitivity score (COG-LL-402h),selective drug sensitivity score (P12-ICHIKAWA),selective drug sensitivity score (COG-LL-319h),selective drug sensitivity score (MOLT-14),selective drug sensitivity score (KOPN-8),selective drug sensitivity score 697
Nc1ncnc2c1nc(N)n2[C@@H]1O[C@H](CO)[C@@H](O)[C@H]1O [8-amino-adenosine] (top concentration 50000 nM),4.48,6.58,7.28,5.98,5.68,-1.42,3.28,-2.52,6.68,1.58,6.18,6.98,7.08,7.08,5.78,0.38,6.78,5.18,7.48,6.48
Cn1cnc2c(F)c(Nc3ccc(Br)cc3Cl)c(C(=O)NOCCO)cc21 [Selumetinib] (top concentration 10000 nM),-1.3,-3,5.4,-1.6,-3.4,4.7,-3.5,-3.7,5,-4.1,-2.1,0.8,11,2.2,-2.3,0.3,-1.8,7.2,7,-1
CO[C@H](C(=O)[C@@H](O)[C@@H](C)O)[C@@H]1Cc2cc3cc(O[C@H]4C[C@@H](O[C@H]5C[C@@H](O)[C@H](O)[C@@H](C)O5)[C@@H](O)[C@@H](C)O4)c(C)c(O)c3c(O)c2C(=O)[C@H]1O[C@H]1C[C@@H](O[C@H]2C[C@@H](O[C@H]3C[C@](C)(O)[C@H](O)[C@@H](C)O3)[C@H](O)[C@@H](C)O2)[C@H](O)[C@@H](C)O1 [Plicamycin] (top concentration 10000 nM),2.74,0.04,-15.6,-12.8,-5.06,-15.4,-1.96,-6.26,7.34,5.34,-16.3,-5.26,-17.9,-17.5,2.34,-13.8,7.54,-10.3,-17.8,-17.5
Cn1ncc(Cl)c1-c1cc(C(=O)N[C@H](CN)Cc2ccc(F)c(F)c2)oc1Cl [Uprosertib] (top concentration 10000 nM),5.4,-0.6,-1.4,8.5,19.1,6.8,18.8,9.3,2.9,-1.4,6.5,0.7,3.9,0.7,1.7,1.9,5.3,1.1,9.1,0.3
O=C(CCCCCCNC(=O)c1cnc(N(c2ccccc2)c2ccccc2)nc1)NO [Rocilinostat] (top concentration 10000 nM),3.34,3.74,5.64,7.14,6.94,4.84,5.14,5.04,4.84,1.04,5.04,6.54,-0.56,6.64,8.14,5.34,8.24,8.44,13.8,5.84
CC(=O)c1cc2c(o1)C(=O)c1ccccc1C2=O [Napabucasin] (top concentration 20000 nM),-11.8,-9.68,1.22,0.62,0.12,-0.18,-0.18,-1.28,-1.48,-2.08,0.42,0.12,-0.38,-1.28,-3.48,-1.28,-0.18,-0.98,3.72,-0.88
CC(C)Nc1cc(-c2c[nH]c(C(=O)N[C@H](CO)c3cccc(Cl)c3)c2)c(Cl)cn1 [Ulixertinib] (top concentration 10000 nM),3.22,-0.18,6.62,3.62,2.42,3.82,-4.38,1.72,0.12,-4.38,-0.18,1.32,1.92,1.82,-0.38,1.22,-0.78,6.12,5.42,1.62
NC1(C(=O)N[C@@H](CCO)c2ccc(Cl)cc2)CCN(c2ncnc3[nH]ccc23)CC1 [AZD-5363] (top concentration 10000 nM),0.12,-1.08,0.42,-0.88,13.3,5.92,8.82,7.42,7.12,0.12,5.22,4.02,4.02,3.52,5.62,3.52,4.72,-1.88,6.72,5.32
Cn1cc(-c2ccc(F)c(C(F)(F)F)c2)nc1C1CCN(c2ncnc3[nH]ncc23)CC1 (top concentration 10000 nM),-0.14,-0.14,8.76,1.66,0.36,-0.14,1.76,0.36,-0.14,-0.14,-0.14,-0.14,1.66,0.66,-0.14,-0.14,3.76,-0.14,9.76,0.76
Cc1nc(Nc2n[nH]c3c2CN(C(=O)N[C@H](CN(C)C)c2ccccc2)C3(C)C)c2sccc2n1 (top concentration 10000 nM),2.58,-7.92,12.8,-3.12,22.7,3.98,18.6,-1.22,1.18,5.08,12,11.1,-10.5,11.6,6.18,3.68,4.28,7.18,18.3,16.4
CO[C@H]1C[C@@H]2CC[C@@H](C)[C@@](O)(O2)C(=O)C(=O)N2CCCC[C@H]2C(=O)O[C@H]([C@H](C)C[C@@H]2CC[C@@H](O)[C@H](OC)C2)CC(=O)[C@H](C)/C=C(\C)[C@@H](O)[C@@H](OC)C(=O)[C@H](C)C[C@H](C)/C=C/C=C/C=C/1C [Sirolimus] (top concentration 100 nM),-2.26,-3.76,5.04,3.74,5.04,-0.66,0.74,-2.46,-2.86,0.44,1.34,3.14,0.44,4.74,0.04,-2.46,5.94,-2.96,17.9,6.34
Cc1ncc(Cl)cc1NCc1ccc(C(=O)N[C@@H](CC2CCCC2)C(=O)NC2CC2)s1 (top concentration 5000 nM),1.06,1.36,3.46,-0.24,3.96,2.26,18.9,3.26,-0.94,-0.94,-0.94,0.66,1.16,-0.84,13.1,-0.94,14.3,2.96,2.96,-0.94
Nc1ccccc1NC(=O)c1ccc(CNc2nccc(-c3cccnc3)n2)cc1 [Mocetinostat] (top concentration 10000 nM),-0.46,2.74,9.64,9.24,9.04,4.24,5.64,5.24,2.94,1.34,7.54,3.94,2.14,9.14,8.84,6.24,14.7,9.14,9.24,8.84
CC(=O)O[C@]1(C(C)=O)CC[C@H]2[C@@H]3C=C(C)C4=CC(=O)CC[C@]4(C)[C@H]3CC[C@@]21C [Megestrol_acetate] (top concentration 10000 nM),-0.58,1.62,0.32,0.32,0.32,0.52,-0.58,0.02,1.72,-0.58,4.42,0.62,3.32,3.92,-0.38,1.82,0.42,0.22,3.02,2.52
CN(C)C1CCN(C(=O)c2ccc(NC(=O)Nc3ccc(-c4nc(N5CCOCC5)nc(N5CCOCC5)n4)cc3)cc2)CC1 [Gedatolisib] (top concentration 1000 nM),1.46,0.56,8.36,4.06,15.9,4.16,5.06,5.46,5.16,6.26,15.2,8.86,-4.54,9.36,8.56,3.16,-0.04,-3.24,10.1,11.3
CN[C@@H]1C[C@H]2O[C@@](C)([C@@H]1OC)n1c3ccccc3c3c4c(c5c6ccccc6n2c5c31)C(=O)N[C@H]4O [UCN-01] (top concentration 10000 nM),0.74,-1.46,2.64,-0.66,8.64,4.34,11.8,3.74,4.94,0.94,7.74,9.34,2.94,9.34,8.94,5.94,6.64,6.14,10.6,12.9
Cn1cc(CNCC2CCN(c3ncc(C(=O)NO)cn3)CC2)c2ccccc21 [Quisinostat] (top concentration 1000 nM),-1.32,6.78,10.1,2.88,6.28,6.38,7.18,2.98,1.78,-2.02,7.18,1.28,-5.02,9.78,17.6,3.78,12.3,6.98,10.5,8.68
